{
  "source": "patent US5753681A",
  "about": "“Treatment and prophylaxis of pancreatitis” (Sankyo Company, Limited, priority 1996, dated 1998)",
  "type": "in vivo, Wistar-Imamichi rats",
  "settings": "170 mg/kg/day",
  "from_the_text": "Since the decrease in the amount of pancreatic parenchyma resulting from chronic pancreatitis causes loss of pancreatic weight, any suppression of the decrease in the amount of pancreatic parenchyma can be used as an index for evaluating any improvement in the pancreatitis. Furthermore, since degeneration and necrosis of the pancreatic parenchyma and its replacement by connective tissue occurs in chronic pancreatitis, the seriousness of the pancreatitis can be estimated by histopathologically measuring the area over which the pancreatic parenchyma is replaced with connective tissue (known as the \"cicatrized area\").\nMeasurement of the weight of the pancreas may be carried out by conventional procedures after the experimental animals have been sacrificed by phlebotomy.\nThe effects of pancreatitis may be simulated, as is conventional, in experimental animals, by the administration of streptozotocin [(N-methylnitroso-carbamoyl)-D-glucosamine: R. A. Bennett et al., Cancer Res., 41, 2786-2790, (1981); a product of Sigma Chemical Company], which is capable of specifically destroying the Langerhans islet B cells and which thus induces a decrease in pancreatic weight. Streptozotocin is administered intravenously to the experimental animal, and then a powdered feed admixed with a test compound is given to a group of animals which have been dosed with streptozotocin. This group is hereafter referred to as the \"treated group\". Meanwhile, a powdered feed only is given to another group of animals which have been dosed with streptozotocin. This group is hereafter referred to as the \"control group\". Normal animals (undosed) fed with the feed only are also used as a blank group against the experimental animals (dosed with streptozotocin). After the test compounds have been administered to the animals for a predetermined period, each animal is sacrificed to measure its pancreatic weight. […]\nMeanwhile, another group of rats was fed with the powdered feed F2 only. […] After a predetermined period, the rats were sacrificed and the pancreatic weight of each animal was measured.",
  "data": [
    {"smiles": "Cc1c(C)c2c(c(C)c1O)CCC(C)(COc1ccc(CC3SC(=O)NC3=O)cc1)O2", "note": "(stereo not drawn) [troglitazone, 5-[4-(6-Hydroxy-2,5,7,8-tetramethylchroman-2-ylmethoxy)benzyl]thiazolidine-2,4-dione]", "values": [
      {"measurement": "Inhibition of pancreatic weight loss (in words)", "setting": "0.2% in feed, 14 days, vs. control group", "value": "significantly inhibited the pancreatic weight loss"},
      {"measurement": "Lesions such as edema in the pancreas", "setting": "rat, in vivo", "value": "no lesions such as edema"},
      {"measurement": "Pancreatic weight", "setting": "treated group, 0.2% in feed, 14 days, after streptozotocin 25 mg/kg i.v., normal 1333 ± 43, control 1253 ± 39, *p < 0.05 vs. control", "value": "1435 ± 40", "unit": "mg"}
    ]}
  ]
}
